The supplement of paper PMC9663587

How the values were obtained:
Assay in all cases: area over the GR curve, 72 h; higher = more effect;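 note: Dye Drop or Deep Dye Drop imaging of viable cells in 384-well plates (Hoechst nuclei, LIVE/DEAD dye), nine half-log doses, GR normalized to DMSO controls and time-zero plates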
CAL120 = test system: CAL120
HCC1143 = test system: HCC1143
HCC1569 = test system: HCC1569
HCC1954 = test system: HCC1954
MDAMB436 = test system: MDAMB436
MDAMB453 = test system: MDAMB453
PDX1258 = test system: PDX1258
PDX1328 = test system: PDX1328
SUM149 = test system: SUM149
SUM229PE = test system: SUM229PE
T47D = test system: T47D

Row | Compound | area over the GR curve (CAL120) | area over the GR curve (HCC1143) | area over the GR curve (HCC1569) | area over the GR curve (HCC1954) | area over the GR curve (MDAMB436) | area over the GR curve (MDAMB453) | area over the GR curve (PDX1258) | area over the GR curve (PDX1328) | area over the GR curve (SUM149) | area over the GR curve (SUM229PE) | area over the GR curve (T47D)
1 | COc1ccc2c(c1)[C@]1(C[C@H]1c1ccc3c(/C=C/c4ccc(CN5C[C@@H](C)O[C@@H](C)C5)cc4)n[nH]c3c1)C(=O)N2 | 0.518 GR | 0.534 GR | 0.435 GR | 0.995 GR | 0.768 GR | 0.537 GR | 0.676 GR | 0.553 GR | 0.672 GR | 0.675 GR | 0.79 GR
2 | COc1cccc(OCCCN)c1-c1cc(Nc2cnc(C#N)cn2)n[nH]1 | 0.344 GR | 0.619 GR | 0.355 GR | 1.21 GR | 0.545 GR | 0.843 GR | 0.868 GR | 0.442 GR | 0.793 GR | 0.342 GR | 0.18 GR
3 | CC(=O)Nc1cccc(-n2c(=O)n(C3CC3)c(=O)c3c(Nc4ccc(I)cc4F)n(C)c(=O)c(C)c32)c1 (max 1 µM) | 0.294 GR | 0.538 GR | 0.135 GR | 0.401 GR | 0.182 GR | 0.279 GR | 0.0351 GR | 0.166 GR | 0.39 GR | 0.472 GR | 0.213 GR
4 | CCc1cnn2c(NCc3ccc[n+]([O-])c3)cc(N3CCCC[C@H]3CCO)nc12 (max 1 µM) | 0.555 GR | 0.545 GR | 0.541 GR | 0.629 GR | 0.483 GR | 0.578 GR | 0.685 GR | 0.656 GR | 0.687 GR | 0.532 GR | 0.47 GR
5 | CC(=O)c1c(C)c2cnc(Nc3ccc(N4CCNCC4)cn3)nc2n(C2CCCC2)c1=O (max 3.162 µM) | 0.142 GR | 0.255 GR | 0.0095 GR | 0.176 GR | -0.0424 GR | 0.437 GR | -0.0777 GR | 0.252 GR | 0.19 GR | 0.223 GR | 0.45 GR
6 | CCc1cncnc1N1CCN(Cc2nc3ccc(C(F)(F)F)cc3[nH]2)CC1 (max 10 µM) | 0.0139 GR | 0.0639 GR | 0.0337 GR | -0.0456 GR | 0.0903 GR | -0.0403 GR | -0.0033 GR | 0.0319 GR | 0.0207 GR | 0.0479 GR | 0.122 GR
7 | CCCCOc1c(C(=O)c2c(F)cc(C)cc2F)c[nH]c2nncc1-2 (max 10 µM) | 0.346 GR | 0.837 GR | 0.657 GR | 0.835 GR | 0.355 GR | 0.384 GR | 1.05 GR | 0.142 GR | 0.637 GR | 0.662 GR | 0.649 GR
8 | CCN1CCN(Cc2ccc(Nc3ncc(F)c(-c4cc(F)c5nc(C)n(C(C)C)c5c4)n3)nc2)CC1 (max 10 µM) | 0.478 GR | 0.541 GR | 0.132 GR | 0.458 GR | 0.187 GR | 0.85 GR | 0.329 GR | 0.676 GR | 0.344 GR | 0.383 GR | 0.766 GR
9 | CNc1nc(-c2ccc3c(N)n[nH]c3c2)cc(N2C[C@@H](C(=O)NC3CCCCC3)CC[C@H]2C)n1 (max 10 µM) | 0.0896 GR | 0.0906 GR | 0.114 GR | 0.0806 GR | 0.0007 GR | 0.266 GR | 0.011 GR | 0.136 GR | 0.0419 GR | 0.0671 GR | 0.394 GR
10 | CO[C@@H](C)Cn1c(=O)n(C)c2cnc3ccc(-c4cncc(C(C)(C)O)c4)cc3c21 (max 10 µM) | 0.696 GR | 0.446 GR | 0.768 GR | 0.822 GR | 0.372 GR | 0.851 GR | 0.557 GR | 0.72 GR | 0.286 GR | 0.409 GR | 0.894 GR
11 | Cc1nn(C)c(COc2ccc(N3CCN(S(=O)(=O)N(C)C)CC3)cc2)c1-c1cccc2c(CCCOc3cccc4ccccc34)c(C(=O)O)n(CCN3CCOCC3)c12 (max 10 µM) | 0.0152 GR | 0.064 GR | -0.0353 GR | -0.0351 GR | 0.014 GR | -0.0756 GR | -0.0034 GR | -0.0317 GR | 0.0361 GR | 0.0397 GR | 0.0143 GR
12 | CN(C)CC[C@H](CSc1ccccc1)Nc1ccc(S(=O)(=O)NC(=O)c2ccc(N3CCN(Cc4ccccc4-c4ccc(Cl)cc4)CC3)cc2)cc1[N+](=O)[O-] [ABT-737] (max 10 µM) | 0.2 GR | 0.102 GR | 0.318 GR | 0.027 GR | -0.0008 GR | -0.0061 GR | -0.0015 GR | 0.304 GR | 0.142 GR | 0.0913 GR | -0.0166 GR
13 | C=CCn1c(=O)c2cnc(Nc3ccc(N4CCN(C)CC4)cc3)nc2n1-c1cccc(C(C)(C)O)n1 [AZD1775] (max 10 µM) | 0.483 GR | 0.355 GR | 0.825 GR | 0.295 GR | 0.497 GR | 0.563 GR | 0.73 GR | 0.806 GR | 0.614 GR | 0.756 GR | 0.113 GR
14 | CNC(=O)c1cccc(-c2ccc3c(N4CCOC[C@@H]4C)nc(N4CCOC[C@@H]4C)nc3n2)c1 [AZD2014] (max 10 µM) | 0.464 GR | 0.422 GR | 0.625 GR | 0.568 GR | 0.363 GR | 0.692 GR | 0.41 GR | 0.706 GR | 0.385 GR | 0.484 GR | 0.959 GR
15 | NC1(C(=O)N[C@@H](CCO)c2ccc(Cl)cc2)CCN(c2nc[nH]c3nccc2-3)CC1 [AZD5363] (max 10 µM) | 0.0399 GR | 0.0834 GR | 0.433 GR | 0.23 GR | 0.104 GR | 0.234 GR | 0.153 GR | 0.0959 GR | 0.109 GR | 0.234 GR | 0.623 GR
16 | C[C@@H]1COCCN1c1cc(C2([S@](C)(=N)=O)CC2)nc(-c2cc[nH]c3nccc2-3)n1 [AZD6738] (max 10 µM) | -0.169 GR | 0.0282 GR | 0.053 GR | -0.0136 GR | 0.0381 GR | 0.0984 GR | 0.0598 GR | 0.172 GR | 0.117 GR | 0.0968 GR | -0.205 GR
